The test system of the experiment is PTX-resistant H460/PV2-7 cells. Nature of the experiment: Inhibitory effect on growth of PTX-resistant tumor cell line highly expressing TUBB3 (in vitro). The experiment is classed as cell-based, human. The following applies: for Resistance rate: H460/PV2-7 versus parent line H460; for IC50: Homo sapiens, NCI-H460, H460/PV2-7 cells, 96 hours culture, WST-8.

Structures are written as SMILES.

With `Cc1c(-c2nnn(CCO)n2)[nH]c(C(C)O)c1C(=O)c1cccc(Br)c1` (stereo not shown) [Compound 123, (3-bromophenyl)(2-(1-hydroxyethyl)-5-(2-(2-hydroxyethyl)-2H-tetrazol-5-yl)-4-methyl-1H-pyrrol-3-yl)methanone], the Resistance rate is 0.31 and 21 nM corresponded to half-maximal inhibition (IC50).

Take `CO[C@H]1C(=O)[C@]2(C)[C@@H](OC)C[C@H]3OC[C@@]3(OC(C)=O)[C@H]2[C@H](OC(=O)c2ccccc2)[C@]2(O)C[C@H](OC(=O)[C@H](O)[C@@H](NC(=O)OC(C)(C)C)c3ccccc3)C(C)=C1C2(C)C` [Cabazitaxel, cabazitaxel]: the Resistance rate turned out to be 3.2 and half-maximal inhibition (IC50) required 4 nM.

Take `CC(=O)O[C@H]1C(=O)[C@@]2(C)[C@H]([C@H](OC(=O)c3ccccc3)[C@]3(O)C[C@H](OC(=O)[C@H](O)[C@@H](NC(=O)c4ccccc4)c4ccccc4)C(C)=C1C3(C)C)[C@]1(OC(C)=O)CO[C@@H]1C[C@@H]2O` [Paclitaxel, paclitaxel, reference compound]: the Resistance rate was 4.6 and it took 16.5 nM to reach half-maximal inhibition (IC50). Under “listed as PTX”, the Resistance rate result is on record as “approximately 4.6”.

For `CC(=O)O[C@@]12CO[C@@H]1C[C@H](O)[C@@]1(C)C(=O)[C@H](O)C3=C(C)[C@@H](OC(=O)[C@H](O)[C@@H](NC(=O)OC(C)(C)C)c4ccccc4)C[C@@](O)([C@@H](OC(=O)c4ccccc4)[C@H]21)C3(C)C` [Docetaxel, docetaxel], the Resistance rate was 2.6 and inhibition was half-maximal at 4 nM (IC50).

Regarding `CNC(=O)c1[nH]c(-c2nnn(CCO)n2)c(C)c1C(=O)c1cccc(Br)c1` [Compound 142, 3-(3-bromobenzoyl)-5-(2-(2-hydroxyethyl)-2H-tetrazol-5-yl)-N,4-dimethyl-1H-pyrrole-2-carboxamide], the Resistance rate is 0.29 and half-maximal inhibition (IC50) required 108 nM.

As to `Cc1c(-c2nnn(CCO)n2)[nH]c(CO)c1C(=O)c1cccc(Br)c1` [Compound 121, (3-bromophenyl)(5-(2-(2-hydroxyethyl)-2H-tetrazol-5-yl)-2-(hydroxymethyl)-4-methyl-1H-pyrrol-3-yl)methanone], the Resistance rate amounted to 0.27 and 20.6 nM corresponded to half-maximal inhibition (IC50).
